Laboratory results published in US9961899B2, “Nematicidal aqueous suspension concentrate compositions” (Monsanto Technology LLC, priority 2012, dated 2018).

Key:
Type in all cases: physicochemical
[1] = Grinding analysis of polymorphs (ball mill, XRD); conditions: ball mill 2 minutes at 4800 oscillations per minute
Procedure: Batches of 3-phenyl-5-(thiophen-2-yl)-1,2,4-oxadiazole polymorphic Forms I and II were ground using a CRESCENT WIG-L-BUG ball mill for 2 minutes at 4800 oscillations per minute (3.2 m/s) in two separate experiments. […] The Form II used in this experiment was obtained by recrystallization from the melt of Form I, as described in Example 14, above, […]

[2] = Mechanical pressure analysis of polymorphs (CARVER press, XRD); conditions: approximately 15,000 psi for approximately 20 seconds
Procedure: Batches of 3-phenyl-5-(thiophen-2-yl)-1,2,4-oxadiazole polymorphic Forms I and II were placed in a CARVER press and compressed at approximately 15,000 psi for approximately 20 seconds in two separate experiments. XRD analysis was performed on the samples. The resulting XRD pattern matched the starting material in both experiments, as shown in FIGS. 5A and 5B for Forms I and II, respectively. […] The Form II used in this experiment was obtained by recrystallization from the melt of Form I, as described in Example 14, above.

[3] = Storage stability of polymorphs (humidity chambers / ambient, XRD)
From the text: To determine the storage stability and/or hydrate formation of 3-phenyl-5-(thiophen-2-yl)-1,2,4-oxadiazole Form I material during storage at ambient conditions, samples were monitored in two static humidity chambers. […] Solutions of saturated potassium chloride (84% RH) and sodium chloride (75% RH) salts at ambient temperature were used.

[4] = Estimation of polymorph transition temperature from DSC data; conditions: calculated from DSC thermal data
Procedure: Polymorphic Forms I and II of 3-phenyl-5-(thiophen-2-yl)-1,2,4-oxadiazole, as well as a 50/50 mixture thereof, were analyzed by DSC at a slow heating rate of 2° C. per minute, with similar sample sizes. […] Form II has a higher melting temperature and a lower enthalpy of fusion. […] FIGS. 9A through 9C show the relevant DSC thermograms for Form I, Form II, and a mixture of Forms I and II, respectively.
The thermal data using the procedure set forth above was used to calculate an approximate value for the transition temperature of conversion of Forms I and II, resulting in an estimated transition temperature value of 102° C.

| polymorphic transformation on grinding (XRD) [1] | storage stability (XRD) ([3]; scintillation vial, ambient conditions, approximately 6 days) | transition temperature between Forms I and II [4] | SMILES | polymorphic change under mechanical pressure (XRD) [2] | storage stability / hydrate formation (XRD) ([3]; 75 and 84% RH, ambient temperature, 4 weeks) |
| --- | --- | --- | --- | --- | --- |
| transformed to Form I | showed signs of transformation to Form I | – | c1ccc(-c2noc(-c3cccs3)n2)cc1 [Form II, 3-phenyl-5-(thiophen-2-yl)-1,2,4-oxadiazole] | did not reveal any changes in the polymorphic form | – |
| – | – | approximately 102 °C | c1ccc(-c2noc(-c3cccs3)n2)cc1 [Ia-i, 3-phenyl-5-(thiophen-2-yl)-1,2,4-oxadiazole] | – | – |
| no transformation was observed | – | – | c1ccc(-c2noc(-c3cccs3)n2)cc1 [Form I, 3-phenyl-5-(thiophen-2-yl)-1,2,4-oxadiazole] | did not reveal any changes in the polymorphic form | does not form a hydrate and appears to be thermodynamically stable over time |
